From patent US8058243B2, “Method for treating a brain cancer with ifenprodil” (HSC Research and Development Limited Partnership, priority 2006, dated 2011) come the findings set out here.

Read-outs that look alike come from different tables or passages of the source.

The assay relates to murine neural precursor cells (neurosphere cultures). Nature of the assay: HTS of LOPAC library against secondary neurosphere cultures, MTT proliferation assay at 3 μM, day 7 (z score, P value). In kind it is cell-based, mouse.
Where [1] appears, read: LOPAC library screen, 3 μM, MTT, neurosphere cultures.
The mark [2] stands for this setting: LOPAC primary screen, neurosphere MTT proliferation, 3 μM, day 7.
[3] abbreviates: yes/no: significantly inhibited neurosphere proliferation (P<0.01) in primary screen.
[4] abbreviates: yes/no: significantly inhibited neurosphere proliferation in primary screen.
Where [5] appears, read: LOPAC screen, neurosphere MTT proliferation, 3 μM, day 7.
The mark [6] stands for this setting: yes/no: significantly inhibited neurosphere proliferation (P<0.01) in the primary screen.
[7] abbreviates: LOPAC library screen, 3 μM, MTT, secondary neurosphere cultures, day 7.
Where [8] appears, read: yes = significantly inhibited neurosphere proliferation (P<0.01) in the primary screen.
[9] abbreviates: LOPAC library screen at 3 μM, secondary neurosphere cultures, MTT.
The mark [10] stands for this setting: yes/no: significantly inhibited neurosphere proliferation in the primary screen.

On to `C1CNCCN1.COc1cc(C(O)CO)ccc1O.COc1cc(C(O)CO)ccc1O` (racemic) [MHPG piperazine], for which the “Z Score” value under setting [1] turned out to be 0.05276. The molecule also returned a Z score under setting [2] of 0.053. The Activity result under setting [3] is reported as “no”.

Under setting [2], `CCCCCCCCCCCCCCCC(=O)OC(CC(=O)O)C[N+](C)(C)C.[Cl-]` (racemic) [Palmitoyl-DL-Camitine chloride] registered a Z score of 0.200. Besides, the Activity result under setting [4] was “no”.

Regarding `CCCCCCCCCCCCCCCC(=O)OC(CC(=O)O)C[N+](C)(C)C.[Cl-]` (racemic) [Palmitoyl-DL-Carnitine chloride], the “Z Score” value is 0.1995.

With `CCCCOc1cc(CC2CNC(=O)N2)ccc1OC` (racemic) [Ro 20-1724], the “Z Score” value is listed as 0.5874. Moreover, the Z score under setting [5] turned out to be 0.587. Besides, the Activity entry under setting [3] is reported as “no”.

With `CCN1CCC[C@H]1CNC(=O)c1c(O)c(Cl)cc(Cl)c1OC.O=C(O)C(O)C(O)C(=O)O` (racemic) [S(+)-Raclopride L-tartrate], the “Z Score” value (LOPAC library screen at 3 μM, MTT, secondary neurosphere cultures, screened in singlets) is 1.901. Further, under setting [2], the Z score amounted to 1.901. Under setting [6], the Activity result is given as “no”.

For `CC(=O)N[C@H](C(=O)O)C(C)(C)SN=O` (racemic) [S-Nitroso-N-acetylpenicillamine], the “Z Score” value under setting [7] is listed as −1.645. Further, under setting [2], the Z score was −1.645. Besides, the Activity result under setting [8] was “no”.

Consider `COC(=O)C(C)(N)Cc1ccc(O)cc1.Cl` (racemic) [alpha-Methyl-DL-tyrosine methyl ester hydrochloride], for which, under “168 h, 3 µM”, the “Z Score” value is 0.3703 and the Z score is reported as 0.370. The Activity result under setting [6] is given as “no”.

For the molecule `Br.CCCN1CCC2c3cc(O)ccc3CCC21` (racemic) [cis-(±)-8-OH-PBZI hydrobromide], under setting [2], the Z score is listed as −2.297. Besides, under setting [6], the Activity entry is reported as “no”.

With `CCCCCCCCCCCCCCCC(=O)NCC(COP(=O)([O-])OCC[N+](C)(C)C)OCC` (racemic) [rac-2-Ethoxy-3-hexadecanamido-1-propylphosphocholine], under “168 h, 3 µM”, the “Z Score” value is listed as −1.269 and the Z score is −1.269. Further, under setting [3], the Activity result is given as “no”.

Regarding `CCCCCCCCCCCCCCCCCC(=O)NCC(COP(=O)([O-])OCC[N+](C)(C)C)OCC` (racemic) [rac-2-Ethoxy-3-octadecanamido-1-propylphosphocholine], the “Z Score” value under setting [9] was −1.112. Further, under setting [2], the Z score is −1.112. For the same molecule, the Activity entry under setting [3] was “no”.

In the case of `O=C(O)[C@H]1C[C@H](C(=O)O)N1` (relative stereo) [trans-Azetidine-2,4-dicarboxylic acid], where the note is “168 h, 3 µM”, the “Z Score” value was −0.3491 and the Z score is given as −0.349. For the same molecule, the Activity result under setting [10] is “no”.

With `CN(C)CCC(c1ccc(Br)cc1)c1ccccn1.O=C(O)/C=C\C(=O)O` (single isomer, unassigned; (+)) [(+)-Brompheniramine maleate], the “Z Score” value under setting [7] is on record as −3.976. For the same molecule, the Z score under setting [2] was −3.976. For the same molecule, under setting [6], the Activity entry was “yes”.

Consider `CC(C)(C)C1(O)CCN2CC3c4ccccc4CCc4cccc(c43)C2C1.Cl` (single isomer, unassigned; (+)) [(+)-Butaclamol hydrochloride], for which the “Z Score” value under setting [7] is on record as −11.27. The same molecule had a Z score under setting [2] of −11.274. For the same molecule, under setting [6], the Activity entry is listed as “yes”.

For the molecule `CN(C)CCC(c1ccc(Cl)cc1)c1ccccn1.O=C(O)/C=C\C(=O)O` (single isomer, unassigned; (+)) [(+)-Chlorpheniramine maleate], the Activity entry is recorded as “no”. In addition, under setting [7], the “Z Score” value is on record as −1.272. Also, the Z score under setting [2] is on record as −1.272.

For the molecule `COc1ccc2c(c1OC)C(=O)OC2C1c2cc3c(cc2CCN1C)OCO3` (single isomer, unassigned; (+)) [(+)-Hydrastine], the “Z Score” value is given as −0.8362. The same molecule gave a Z score under setting [2] of −0.836. Also, under setting [6], the Activity result was “no”.

In the case of `CC12NC(Cc3ccccc31)c1ccccc12.O=C(O)/C=C\C(=O)O` (single isomer, unassigned; (+)) [(+)-MK-801 hydrogen maleate], the “Z Score” value was −0.09805. Under setting [2], this molecule gave a Z score of −0.098. Besides, the Activity entry under setting [8] was “no”.

In the case of `CC(C)NCC(O)c1ccc(O)c(O)c1.Cl` (single isomer, unassigned; (-)) [(−)-Isoproterenol hydrochloride], the “Z Score” value under setting [1] is given as 0.2367. Further, under setting [2], the Z score was found to be 0.237. Besides, the Activity entry under setting [3] was “no”.

Turning to `CN1CCCC1c1cccnc1.O=C(O)C(O)C(O)C(=O)O` (single isomer, unassigned; (-)) [(−)-Nicotine hydrogen tartrate salt], the Activity result is on record as “no”, the “Z Score” value is on record as 0.04498 and the Z score is listed as 0.045.

In the case of `CCN1CCCC1CNC(=O)c1cc(S(N)(=O)=O)ccc1OC` (single isomer, unassigned; (-)) [(−)-Sulpiride], under setting [7], the “Z Score” value is reported as −2.647. This molecule also displayed a Z score under setting [2] of −2.647. Moreover, the Activity result under setting [6] is “yes”.

As for `CC(N)C(O)c1ccc(O)c(O)c1` (single isomer, unassigned; (-)) [(−)-alpha-Methylnorepinephrine], the “Z Score” value is listed as 1.193. The Z score under setting [5] stood at 1.193. For the same molecule, the Activity result under setting [3] is reported as “no”.

As to `N.N.N.Nc1ncnc2c1ncn2C1OC(COP(=O)(O)OP(=O)(O)OP(=O)(O)OP(=O)(O)OC[C@H]2O[C@@H](n3cnc4c(N)ncnc43)C(O)C2O)[C@@H](O)C1O` (stereo in doubt), the “Z Score” value under setting [9] is −0.2867. The molecule also had a Z score under setting [5] of −0.287. For the same molecule, under setting [3], the Activity entry was “no”.

In the case of `Nc1ncnc2c1nc(Sc1ccc(Cl)cc1)n2C1OC2COP(=O)(O)OC2C1O` (stereo in doubt) [8-(4-Chlorophenylthio)-cAMP sodium], the “Z Score” value under setting [1] was 1.217. The molecule further yielded a Z score under setting [5] of 1.217. The Activity entry under setting [3] was “no”.

For `CCCCC1(C2CCCC2)Cc2cc(OCC(=O)O)c(Cl)c(Cl)c2C1=O` (stereo in doubt) [R(+)-Butylindazone], the “Z Score” value was found to be 0.02924. Moreover, the Z score under setting [5] stood at 0.029. Further, the Activity result under setting [3] is “no”.

Regarding `C[N+]1(C)CCN(c2ccccc2)CC1.[I-]` [1,1-Dimethyl-4-phenyl-piperazinium iodide], the “Z Score” value is −1.057. Also, under setting [5], the Z score is reported as −1.057. Besides, the Activity result under setting [3] is reported as “no”.

In the case of `CCCc1c(-c2ccc(O)cc2)nn(-c2ccc(O)cc2)c1-c1ccc(O)cc1` [1,3,5-tris(4-hydroxyphenyl)-4-propyl-1H-pyrazole], where the note is “168 h, 3 µM”, the “Z Score” value came to 0.7717 and the Z score stood at 0.772. Further, the Activity result under setting [3] was “no”.

On to `CCn1c(=O)c2[nH]c(-c3ccccc3)nc2n(CC)c1=O` [1,3-Diethyl-8-phenylxanthine], for which, for the setting “168 h, 3 µM”, the “Z Score” value is listed as 2.005 and the Z score turned out to be 2.005. Moreover, under setting [10], the Activity result was “no”.

On to `Cn1c(=O)c2[nH]c(-c3ccccc3)nc2n(C)c1=O` [1,3-Dimethyl-8-phenylxanthine], for which, for the setting “168 h, 3 µM”, the “Z Score” value came out at 0.7518 and the Z score was found to be 0.752. In addition, the Activity entry under setting [4] was “no”.

In the case of `CCCn1c(=O)c2c(ncn2C)n(CCC)c1=O` [1,3-Dipropyl-7-methylxanthine], for the setting “168 h, 3 µM”, the “Z Score” value is on record as −0.08896 and the Z score is reported as −0.089. Also, the Activity entry under setting [3] is “no”.

As to `CCCn1c(=O)c2[nH]c(-c3ccc(S(=O)(=O)O)cc3)nc2n(CCC)c1=O` [1,3-Dipropyl-8-p-sulfophenylxanthine], the “Z Score” value is reported as 4.743 and the Z score turned out to be 4.743. Moreover, the Activity entry under setting [10] is recorded as “no”.

In the case of `Br.Br.N=C(N)SCCc1cccc(CCSC(=N)N)c1` [1,3-PBIT dihydrobromide], the “Z Score” value was determined as 2.221. Moreover, the Z score under setting [2] is listed as 2.221. Moreover, the Activity entry under setting [4] is “no”.

On to `OC[C@H]1NC[C@@H](O)[C@@H]1O` [1,4-Dideoxy-1,4-imino-D-arabinitol], for which, for the setting “168 h, 3 µM”, the “Z Score” value is −0.008617 and the Z score is reported as −0.009. Under setting [3], the Activity result is given as “no”.

In the case of `Br.Br.N=C(N)SCCc1ccc(CCSC(=N)N)cc1` [1,4-PBIT dihydrobromide], the “Z Score” value is given as −1.179. Also, under setting [2], the Z score is given as −1.179. Besides, under setting [4], the Activity result was “no”.

In the case of `Oc1cccc2c(O)nccc12` [1,5-Isoquinolinediol], under setting [1], the “Z Score” value was 0.02674. For the same molecule, the Z score under setting [2] was determined as 0.027. Moreover, the Activity entry under setting [3] is on record as “no”.

As to `Cn1c(=O)[nH]c2ncn(C)c2c1=O` [1,7-Dimethylxanthine], where the note is “168 h, 3 µM”, the “Z Score” value is −0.6623 and the Z score is given as −0.662. For the same molecule, the Activity entry under setting [3] is on record as “no”.

Consider `NCCCCCCCCCCN` [1,10-Diaminodecane], for which, where the note is “168 h, 3 µM”, the “Z Score” value turned out to be 0.1393 and the Z score is 0.139. The Activity entry under setting [3] is on record as “no”.

Regarding `O.c1cnc2c(c1)ccc1cccnc12` [1,10-Phenanthroline monohydrate], the “Z Score” value is −0.8855. Under setting [2], this molecule displayed a Z score of −0.886. For the same molecule, the Activity entry under setting [4] is reported as “no”.

As to `Cl.c1ccc2c(N3CCNCC3)cccc2c1` [1-(1-Naphthyl)piperazine hydrochloride], the “Z Score” value was determined as 0.2301. This molecule also came in with a Z score under setting [2] of 0.230. Under setting [4], the Activity result was “no”.

Turning to `Clc1ccc(C(c2ccccc2Cl)C(Cl)Cl)cc1` (centres unmarked) [1-(2-Chlorophenyl)-1-(4-chlorophenyl)-2,2-dichloroethane], the “Z Score” value under setting [7] was −2.508. Also, the Z score under setting [2] is −2.508. Under setting [8], the Activity entry is recorded as “yes”.
